These results are taken from patent US6140487A (Kabushiki Kaisha Hayashibara Seibutsu Kagaku Kenkyujo, priority 1996, dated 2000).

The target of one data set is T1, kojibiose phosphorylase (Thermoanaerobacter brockii, UniProt Q8L163).
T1 sequence (Q8L163 1-775): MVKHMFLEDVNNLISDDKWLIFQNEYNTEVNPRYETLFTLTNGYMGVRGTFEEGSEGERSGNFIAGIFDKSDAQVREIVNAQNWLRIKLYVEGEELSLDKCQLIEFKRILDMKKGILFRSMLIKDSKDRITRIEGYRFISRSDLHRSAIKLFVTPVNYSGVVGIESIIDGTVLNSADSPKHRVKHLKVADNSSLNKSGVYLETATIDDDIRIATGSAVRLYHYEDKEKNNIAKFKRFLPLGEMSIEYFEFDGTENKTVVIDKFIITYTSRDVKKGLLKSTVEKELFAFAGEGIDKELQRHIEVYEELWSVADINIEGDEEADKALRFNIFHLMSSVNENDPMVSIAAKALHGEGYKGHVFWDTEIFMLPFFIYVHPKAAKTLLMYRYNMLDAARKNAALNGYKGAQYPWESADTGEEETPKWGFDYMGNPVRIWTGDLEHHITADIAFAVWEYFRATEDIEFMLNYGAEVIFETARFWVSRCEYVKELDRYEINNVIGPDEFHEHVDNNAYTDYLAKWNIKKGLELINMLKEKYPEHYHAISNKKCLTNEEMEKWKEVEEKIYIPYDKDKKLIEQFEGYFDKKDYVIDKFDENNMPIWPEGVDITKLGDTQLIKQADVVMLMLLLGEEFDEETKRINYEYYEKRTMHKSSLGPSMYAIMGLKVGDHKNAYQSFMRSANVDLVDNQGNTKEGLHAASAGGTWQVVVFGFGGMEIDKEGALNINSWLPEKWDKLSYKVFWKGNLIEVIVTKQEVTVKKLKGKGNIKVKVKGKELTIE
Description: Substrate specificity for saccharide-hydrolyzing reaction by kojibiose phosphorylase (TLC). To be noted: summary of Table 1.
Description: The saccharide concentration of each reaction solution was 2 w/v %. Pre-reaction solutions and post-reaction mixtures were subjected to thin layer chromatography (hereinafter abbreviated as "TLC") using "[sequence] 60 (20×20 cm)", an aluminum plate for TLC commercialized by Merck & Co., Inc., Rahway, USA. Samples were developed once at ambient temperature on the plate using 1-butanol/pyridine/water (=7:3:1 by volume) as a developing solvent system, and the plate was sprayed with 20 v/v % sulfuric acid/methanol solution, and heated at 110° C. for about 10 min for coloration. Comparing spots of the solutions and mixtures detected on the plates, it was checked whether the enzyme acted on the saccharides.
As to `OC[C@H]1O[C@H](O[C@H]2C(O)O[C@H](CO)[C@@H](O)[C@@H]2O)[C@H](O)[C@@H](O)[C@@H]1O` (stereo partly drawn) [Kojibiose], the “Action of kojibiose phosphorylase on the saccharide (substrate specificity, in words)” value is listed as “acted on it”.

For the next data set, the target named is T1, kojibiose phosphorylase. In words: Specificity to acceptor in glucosyl-transferred saccharide-forming reaction by kojibiose phosphorylase (TLC). Type of data set: biochemical, Thermoanaerobium brockii, ATCC 35047. Further details: made in house; host or cells: Thermoanaerobium brockii, ATCC 35047 (natural producer, not recombinant; cell lysate purified by column chromatography). Conditions: summary of Table 2. The source says: The concentrations of the acceptors and the saccharide donors were adjusted to one w/v %. Similarly as in Experiment 5, the pre-reaction solutions and the post reaction mixtures were subjected to TLC, followed by coloring the plates. […] By macroscopically observing the coloration degree of the newly detected spots, the yield of the transferred saccharides was relatively evaluated.
As to `OC[C@H]1OC(O)[C@H](O)[C@@H](O)[C@@H]1O` (stereo partly drawn) [D-Glucose], the “Transfer of glucosyl group from β-D-glucose-1-phosphoric acid to the acceptor (in words)” value (“Transfer of glucosyl group” for short) is listed as “effectively transferred glucosyl group”.
Consider `OC[C@H]1O[C@H](O[C@H]2C(O)O[C@H](CO)[C@@H](O)[C@@H]2O)[C@H](O)[C@@H](O)[C@@H]1O` (stereo partly drawn) [Kojibiose], for which the “Transfer of glucosyl group” value is recorded as “effectively transferred glucosyl group”.
Regarding `OCC1(O)OC[C@H](O)[C@@H](O)[C@@H]1O` (stereo partly drawn) [L-Sorbose], the “Transfer of glucosyl group” value is “effectively transferred glucosyl group”.
On to `OC[C@H]1O[C@H](O[C@H]2[C@H](O)[C@@H](O)[C@@H](O[C@H]3[C@H](O)[C@@H](O)[C@@H](O[C@H]4[C@H](O)[C@@H](O)[C@@H](O[C@H]5[C@H](O)[C@@H](O)C(O)O[C@@H]5CO)O[C@@H]4CO)O[C@@H]3CO)O[C@@H]2CO)[C@H](O)[C@@H](O)[C@@H]1O` (stereo partly drawn) [Maltopentaose], for which the “Transfer of glucosyl group” value is reported as “effectively transferred glucosyl group”.
Turning to `OC[C@H]1O[C@H](O[C@H]2[C@H](O)[C@@H](O)[C@H](O)O[C@@H]2CO)[C@H](O)[C@@H](O)[C@@H]1O` [Maltose], the “Transfer of glucosyl group” value is “effectively transferred glucosyl group”.
On the same count and under the same terms, under `OC[C@H]1O[C@H](O[C@H]2[C@H](O)[C@@H](O)[C@@H](O[C@H]3[C@H](O)[C@@H](O)[C@@H](O[C@H]4[C@H](O)[C@@H](O)C(O)O[C@@H]4CO)O[C@@H]3CO)O[C@@H]2CO)[C@H](O)[C@@H](O)[C@@H]1O` (stereo partly drawn) [Maltotetraose] stands “effectively transferred glucosyl group”.
For `OC[C@H]1O[C@H](O[C@H]2[C@H](O)[C@@H](O)[C@@H](O[C@H]3[C@H](O)[C@@H](O)C(O)O[C@@H]3CO)O[C@@H]2CO)[C@H](O)[C@@H](O)[C@@H]1O` (stereo partly drawn) [Maltotriose], the “Transfer of glucosyl group” value was “effectively transferred glucosyl group”.
Same read-out and setting: under `OC[C@H]1O[C@@](CO)(O[C@H]2O[C@H](CO)[C@@H](O)[C@H](O)[C@H]2O)[C@@H](O)[C@@H]1O` [Sucrose] stands “effectively transferred glucosyl group”; under `OC[C@H]1O[C@H](O[C@H]2O[C@H](CO)[C@@H](O)[C@H](O)[C@H]2O)[C@H](O)[C@@H](O)[C@@H]1O` [Trehalose], “effectively transferred glucosyl group”.

The same data set, now with this note: used in place of β-D-glucose-1-phosphoric acid.
Turning to `O=P(O)(O)O[C@H]1O[C@H](CO)[C@@H](O)[C@H](O)[C@H]1O` [α-D-glucose-1-phosphoric acid], the “Formation of glucosyl-transferred saccharide with the substance as saccharide donor” value was “No glucosyl-transferred saccharide was formed”.

The subject of a further data set is 7week-old dd-strain mice. Description: Acute toxicity test, oral administration. Type of data set: in vivo. To be noted: powdery product rich in the saccharide, maximum dose 50 g/kg mouse by weight. The method, then:
Acute toxicity test of the powdery products rich in glucosylsorbose, kojitriose, kojibiosylglucoside, and kojibiosylfructoside in Experiments 8-12 were tested in 7week-old dd-strain mice by administering orally. As a result, no mouse died even when administered with their maximum doses, i.e., 50 g/kg mouse by weight.
Regarding `O=C(CO)[C@@H](O)[C@H](O)[C@H](CO)O[C@H]1O[C@H](CO)[C@@H](O)[C@H](O)[C@H]1O` [glucosylsorbose, α-D-glucosyl-(1→5)-L-sorbose], the “Acute toxicity: death of mice” value is “no mouse died”.
Turning to `OC[C@H]1O[C@@](CO)(O[C@H]2O[C@H](CO)[C@@H](O)[C@H](O)[C@H]2O[C@H]2O[C@H](CO)[C@@H](O)[C@H](O)[C@H]2O)[C@@H](O)[C@@H]1O` [kojibiosylfructoside, α-D-glucosyl-(1→2)-α-D-glucosyl-(1→2)-β-D-fructoside], the “Acute toxicity: death of mice” value is recorded as “no mouse died”.
For `OC[C@H]1O[C@H](O[C@H]2O[C@H](CO)[C@@H](O)[C@H](O)[C@H]2O[C@H]2O[C@H](CO)[C@@H](O)[C@H](O)[C@H]2O)[C@H](O)[C@@H](O)[C@@H]1O` [kojibiosylglucoside, α-D-glucosyl-(1→2)-α-D-glucosyl-(1,1)-α-D-glucoside], the “Acute toxicity: death of mice” value is recorded as “no mouse died”.
As for `OC[C@H]1O[C@H](O[C@H]2[C@@H](O[C@H]3C(O)O[C@H](CO)[C@@H](O)[C@@H]3O)O[C@H](CO)[C@@H](O)[C@@H]2O)[C@H](O)[C@@H](O)[C@@H]1O` (stereo partly drawn) [kojitriose, α-D-glucosyl-(1→2)-α-D-glucosyl-(1→2)-D-glucose], the “Acute toxicity: death of mice” value is “no mouse died”.
